For data set [1], the species on record is Mus musculus. The data set can be described thus: Immuno-adjuvant activity in C57BL/6NCrl mouse assessed as increase in anti-ova total IgG level in serum at 0.3 to 1 mg in presence of 10 ug ovalbumin and measured 20 days post immunization by ELISA. The note with it: dose 0.3-1 mg, time 20.0 day. In kind it is functional, organism-based.
Data set [2] relates to Mus musculus. The data set can be described thus: Immuno-adjuvant activity in C57BL/6NCrl mouse assessed as increase in anti-ova total IgG level in serum at 0.3 to 1 mg administered on day 0 and as booster dose on day 21 in presence of 10 ug ovalbumin measured on day 28 by ELISA. The note with it: dose 0.3-1 mg, time 28.0 day. In kind it is functional, organism-based.
Data set [3] deals with Mus musculus. The data set can be described thus: Immuno-adjuvant activity in C57BL/6NCrl mouse assessed as increase in anti-ova total IgG level in serum at 0.3 to 1 mg administered on day 0 and as booster dose on day 21 in presence of 1 ug ovalbumin measured on day 28 by ELISA. In kind it is functional, organism-based. The note with it: dose 0.3-1 mg, time 28.0 day.
The species named for data set [4] is Mus musculus. The data set can be described thus: Immuno-adjuvant activity in C57BL/6NCrl mouse assessed as increase in IFN-gamma spot forming cells measured per 10^6 splenocytes at 0.3 mg in presence of 10 ug ovalbumin incubated for 20 hrs with SIINFEKL peptide stimulant and measured on day 28 by AEC chromogen based ELISPOT analysis. In kind it is functional.

Data set [5] is filed under the species Mus musculus. The data set can be described thus: Immuno-adjuvant activity in C57BL/6NCrl mouse assessed as increase in IFN-gamma spot forming cells measured per 10^6 splenocytes at 1 mg in presence of 1 ug ovalbumin incubated for 20 hrs with SIINFEKL peptide stimulant and measured on day 28 by AEC chromogen based ELISPOT analysis. In kind it is functional.

A short description of data set [6]: Cytotoxicity against mouse CD8-positive T cells in Ova- immunized C57BL/6NCrl mouse assessed as reduction in cell viability at 1 mg administrated on day 0 and as booster dose on day 21 followed by injection of cells to immunized mouse on day 27 in presence of 10 ug ovalbumin and measured on day 28 by flow cytometry analysis. In kind it is toxicity, cell-based. To be noted: 672 h, time 28 day.

The nature of data set [7]: Cytotoxicity against mouse CD8-positive T cells in Ova- immunized C57BL/6NCrl mouse assessed as reduction in cell viability at 0.3 mg administrated on day 0 and as booster dose on day 21 followed by injection of cells to immunized mouse on day 27 in presence of 10 ug ovalbumin and measured on day 28 by flow cytometry analysis. In kind it is toxicity, cell-based. To be noted: 672 h, time 28 day.

The species named for data set [8] is Mus musculus. The data set can be described thus: Immuno-adjuvant activity in C57BL/6NCrl mouse assessed as increase in anti-ova total IgG level in serum at 1 mg in presence of 1 ug ovalbumin and measured 20 days post immunization by ELISA. In kind it is functional, organism-based. To be noted: time 20.0 day.
The species entered for data set [9] is Mus musculus. Put plainly: Immuno-adjuvant activity in C57BL/6NCrl mouse assessed as increase in IFN-gamma spot forming cells measured per 10^6 splenocytes at 1 mg in presence of 10 ug ovalbumin incubated for 20 hrs with SIINFEKL peptide stimulant and measured on day 28 by AEC chromogen based ELISPOT analysis. In kind it is functional.
A short description of data set [10]: Cytotoxicity against mouse CD8-positive T cells in Ova- immunized C57BL/6NCrl mouse assessed as reduction in cell viability at 1 mg administrated on day 0 and as booster dose on day 21 followed by injection of cells to immunized mouse on day 27 in presence of 1 ug ovalbumin and measured on day 28 by flow cytometry analysis. In kind it is toxicity, cell-based. To be noted: 672 h, time 28 day.

Each structure is given as a SMILES string. Calls of active or inactive are those of the source. No cut-off for these calls is given here.

For `CC(C)CCC[C@@H](C)CCC[C@@H](C)CCC[C@@H](C)CCOC[C@H](CO[C@@H]1O[C@H](CO)[C@@H](O[C@@H]2O[C@H](COS(=O)(=O)[O-])[C@H](O)[C@H](O)[C@H]2O)[C@H](O)[C@H]1O)OCC[C@H](C)CCC[C@H](C)CCC[C@H](C)CCCC(C)C.[Na+]`, the result in the data set filed under Mus musculus [1], with Mus musculus [2], in the data set on Mus musculus [3] and in the data set filed under Mus musculus [8] was Active. Moreover, the Activity is on record as 6 in the data set filed under Mus musculus [4]; 6 in the data set listed under Mus musculus [5]; “Toxic” in data set [6]; “Toxic” in data set [7]; 40 in the data set filed under Mus musculus [9]; “Toxic” in [10].
On to `CC(C)CCC[C@@H](C)CCC[C@@H](C)CCC[C@@H](C)CCOC[C@@H](CO[C@@H]1O[C@H](CO)[C@@H](O[C@@H]2O[C@H](COS(=O)(=O)[O-])[C@H](O)[C@H](O)[C@H]2O)[C@H](O)[C@H]1O)OCC[C@H](C)CCC[C@H](C)CCC[C@H](C)CCCC(C)C.[Na+]`, for which the outcome in the data set filed under Mus musculus [1], with Mus musculus [2], with Mus musculus [3] and in the data set filed under Mus musculus [8] was Active. Besides, the Activity in the data set filed under Mus musculus [4] is listed as 6; in the data set listed under Mus musculus [5] it was 6; in data set [6], “Toxic”; in [7], “Toxic”; in the data set listed under Mus musculus [9], 40; in data set [10], “Toxic”.
Take `CC(C)CCCC(C)CCCC(C)CCCC(C)CCOCC(CO[C@@H]1O[C@H](CO)[C@@H](O[C@@H]2O[C@H](COS(=O)(=O)[O-])[C@H](O)[C@H](O)[C@H]2O)[C@H](O)[C@H]1O)OCCC(C)CCCC(C)CCCC(C)CCCC(C)C.[Na+]` (stereo not given in full): the result in the data set listed under Mus musculus [1], in the data set with Mus musculus [2], with Mus musculus [3] and in the data set listed under Mus musculus [8] was Active. Moreover, the Activity in the data set filed under Mus musculus [4] was 6; in the data set listed under Mus musculus [5], 6; in data set [6], “Toxic”; in [7], “Toxic”; in the data set listed under Mus musculus [9] it was 40; in data set [10], “Toxic”.

Values taken from ChEMBL document CHEMBL5154940, “Effect of Chiral Purity on Adjuvanticity of Archaeol-Based Glycolipids” (J Med Chem, 2022).
